Measurements: patent US4401660A, “Ester derivatives of 5-O-mycaminosyl tylonolide and method of using same” (Eli Lilly and Company, priority 1981, dated 1983)
Where two headings read alike, the source gives them in different places.

What was measured:
[1] = test system: Haemophilus influenzae Holt; assay: MIC, standard agar-dilution assay (Table II); type: cell-based; set-up: unit not given here; conditions: ampicillin-sensitive strain
Method: (§1) The MIC's in Table II were determined by standard agar-dilution assays. The MIC's in Table III were obtained using a conventional broth-dilution microtiter test.

[2] = test system: Haemophilus influenzae R252; assay: MIC, standard agar-dilution assay (Table II); type: cell-based; set-up: unit not given here; conditions: Haemophilus influenzae R252, ampicillin-resistant strain
Method: as §1

[3] = test system: Staphylococcus aureus S13E; assay: MIC, standard agar-dilution assay (Table II); type: cell-based; set-up: unit not given here
Method: as §1

[4] = test system: Staphylococcus aureus V41; assay: MIC, standard agar-dilution assay (Table II); type: cell-based; set-up: unit not given here; conditions: Staphylococcus aureus V41, penicillin-resistant strain
Method: as §1

[5] = test system: Staphylococcus aureus X1.1; assay: MIC, standard agar-dilution assay (Table II); type: cell-based; set-up: unit not given here
Method: as §1

[6] = test system: Staphylococcus aureus X400; assay: MIC, standard agar-dilution assay (Table II); type: cell-based; set-up: unit not given here; conditions: Staphylococcus aureus X400, methicillin-resistant strain
Method: as §1

[7] = test system: Staphylococcus epidermidis EPI1; assay: MIC, standard agar-dilution assay (Table II); type: cell-based; set-up: unit not given here
Method: as §1

[8] = test system: Staphylococcus epidermidis EPI2; assay: MIC, standard agar-dilution assay (Table II); type: cell-based; set-up: unit not given here
Method: as §1

[9] = test system: Streptococcus Group D 9960; assay: MIC, standard agar-dilution assay (Table II); type: cell-based; set-up: unit not given here
Method: as §1

[10] = test system: Streptococcus Group D X66; assay: MIC, standard agar-dilution assay (Table II); type: cell-based; set-up: unit not given here
Method: as §1

[11] = test system: Streptococcus pneumoniae Park I; assay: MIC, standard agar-dilution assay (Table II); type: cell-based; set-up: unit not given here
Method: as §1

[12] = test system: Streptococcus pyogenes C203; assay: MIC, standard agar-dilution assay (Table II); type: cell-based; set-up: unit not given here
Method: as §1

Mycoplasma gallisepticum = assay: MIC, broth-dilution microtiter test (Table III); type: cell-based; set-up: unit not given here
Method: as §1

Mycoplasma hyorhinis = assay: MIC, broth-dilution microtiter test (Table III); type: cell-based; set-up: unit not given here
Method: as §1

Mycoplasma synoviae = assay: MIC, broth-dilution microtiter test (Table III); type: cell-based; set-up: unit not given here
Method: as §1

[13] = test system: Pasteurella haemolytica 22C; assay: MIC, broth-dilution microtiter test (Table III); type: cell-based; set-up: unit not given here
Method: as §1

[14] = test system: Pasteurella haemolytica 23C; assay: MIC, broth-dilution microtiter test (Table III); type: cell-based; set-up: unit not given here
Method: as §1

[15] = test system: Pasteurella haemolytica 41D; assay: MIC, broth-dilution microtiter test (Table III); type: cell-based; set-up: unit not given here
Method: as §1

[16] = test system: Pasteurella multocida 17E; assay: MIC, broth-dilution microtiter test (Table III); type: cell-based; set-up: unit not given here; conditions: bovine isolate
Method: as §1

[17] = test system: Pasteurella multocida 22A; assay: MIC, broth-dilution microtiter test (Table III); type: cell-based; set-up: unit not given here
Method: as §1

[18] = test system: Pasteurella multocida 40G; assay: MIC, broth-dilution microtiter test (Table III); type: cell-based; set-up: unit not given here
Method: as §1

[19] = test system: Pasteurella multocida 60A; assay: MIC, broth-dilution microtiter test (Table III); type: cell-based; set-up: unit not given here; conditions: avian isolate
Method: as §1

[20] = test system: Pasteurella multocida 68C; assay: MIC, broth-dilution microtiter test (Table III); type: cell-based; set-up: unit not given here
Method: as §1

Staphylococcus aureus = assay: MIC, broth-dilution microtiter test (Table III); type: cell-based; set-up: unit not given here
Method: as §1

Streptococcus sp. 80 = assay: MIC, broth-dilution microtiter test (Table III); type: cell-based; set-up: unit not given here
Method: as §1

[21] = test system: Streptococcus pyogenes C203; assay: ED50 in mice with experimental infections (Table IV); type: in vivo; conditions: Streptococcus pyogenes, doses given 1 and 4 hours postinfection
Method: The OMT ester derivatives of this invention have shown in vivo antimicrobial activity against experimental bacterial infections caused by gram-positive bacteria. When two doses of test compound were administered to mice with experimental infections, the activity observed was measured as an ED50 value [effective dose in mg/kg to protect 50% of the test animals: see Warren Wick, et al., J. Bacteriol. 81, 233-235 (1961)].
^a mg/kg × 2; doses given 1 and 4 hours postinfection

[22] = C203, oral, read-out: ED50, Oral
[23] = C203, sc, subcutaneous, read-out: ED50, Subcutaneous

| Structure (SMILES) | minimal inhibitory concentration (MIC) [1] | minimal inhibitory concentration (MIC) [2] | minimal inhibitory concentration (MIC) [3] | minimal inhibitory concentration (MIC) [4] | minimal inhibitory concentration (MIC) [5] | minimal inhibitory concentration (MIC) [6] | minimal inhibitory concentration (MIC) [7] | minimal inhibitory concentration (MIC) [8] | minimal inhibitory concentration (MIC) [9] | minimal inhibitory concentration (MIC) [10] | minimal inhibitory concentration (MIC) [11] | minimal inhibitory concentration (MIC) [12] | minimal inhibitory concentration (MIC) (Mycoplasma gallisepticum) | minimal inhibitory concentration (MIC) (Mycoplasma hyorhinis) | minimal inhibitory concentration (MIC) (Mycoplasma synoviae) | minimal inhibitory concentration (MIC) [13] | minimal inhibitory concentration (MIC) [14] | minimal inhibitory concentration (MIC) [15] | minimal inhibitory concentration (MIC) [16] | minimal inhibitory concentration (MIC) [17] | other results |
| --- | --- | --- | --- | --- | --- | --- | --- | --- | --- | --- | --- | --- | --- | --- | --- | --- | --- | --- | --- | --- | --- |
| CCC(=O)OC1C(C)OC(OC2C(CC=O)CC(C)C(=O)C=CC(C)=CC(CO)C(CC)OC(=O)CC(O)C2C)C(OC(=O)CC)C1N(C)C (stereo not drawn) [Compound 4] | 4 | 4 | 2 | 4 | 2 | 2 | 1 | 4 | 2 | 1 | 8 | 0.5 | 0.39 | 1.56 | 0.78 | 6.25 | 6.25 | 12.5 | 3.12 | 3.12 | minimal inhibitory concentration (MIC) [18]: 6.25; minimal inhibitory concentration (MIC) [19]: 3.12; minimal inhibitory concentration (MIC) [20]: 1.56; minimal inhibitory concentration (MIC) (Staphylococcus aureus): 1.56; minimal inhibitory concentration (MIC) (Streptococcus sp. 80): < 0.78; ED50 [21, 22]: 167 mg/kg; ED50 [21, 23]: 5.7 mg/kg |
| CCC1OC(=O)CC(O)C(C)C(OC2OC(C)C(O)C(N(C)C)C2OC(=O)Cc2ccccc2)C(CC=O)CC(C)C(=O)C=CC(C)=CC1CO (stereo not drawn) [Compound 52, 2'-O-(Phenylacetyl)-OMT] | 2 | 0.5 | 1 | 1 | 0.5 | 2 | 0.5 | 2 | 1 | 0.5 | 0.06 | 0.25 | 3.12 | 3.12 | 1.56 | 25 | 12.5 | 6.25 | 3.12 | 3.12 | minimal inhibitory concentration (MIC) [18]: 3.12; minimal inhibitory concentration (MIC) [19]: 1.56; minimal inhibitory concentration (MIC) [20]: 6.25; minimal inhibitory concentration (MIC) (Staphylococcus aureus): 1.56; minimal inhibitory concentration (MIC) (Streptococcus sp. 80): 0.78; ED50 [21, 22]: 92 mg/kg; ED50 [21, 23]: 2.1 mg/kg |
